The structures appear in SMILES notation. Some results are limits rather than exact numbers.

The target of the first series is T1, LRAT (Bos taurus, UniProt Q9BGL2).
T1 construct: incubated with RPF microsomes that served as a source of LRAT enzymatic activity; from tissue; host or cells: bovine retinal pigment epithelium (RPE) microsomes
T1 sequence (Q9BGL2 1-230): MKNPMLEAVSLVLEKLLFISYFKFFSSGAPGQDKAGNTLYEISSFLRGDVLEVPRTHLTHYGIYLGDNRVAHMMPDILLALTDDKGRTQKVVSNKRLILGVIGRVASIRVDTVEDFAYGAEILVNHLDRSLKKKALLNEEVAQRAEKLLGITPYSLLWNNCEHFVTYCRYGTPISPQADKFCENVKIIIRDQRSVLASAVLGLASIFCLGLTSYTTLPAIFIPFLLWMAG
Kind of series: LRAT activity assay with bovine RPE microsomes (esterification of the corresponding primary alcohols). It counts as biochemical. The note with it: percentage of the corresponding primary alcohol esterified by LRAT in 1 h at 37° C; 10 μM; RPE microsomes. As to the method:
(§1) Bovine RPE microsomes were isolated from RPE homogenates by differential centrifugation as previously described. The resulting microsomal precipitate was resuspended in 10 mM Bis-Tris propane/HCl buffer, pH 7.4, to achieve a total protein concentration of […]. Then the mixture was placed in a quartz cuvette and irradiated for 6 min at 4° C. with a ChromatoUVE transilluminator (model TM-15; UVP) to eliminate residual retinoids. After irradiation, DTT was added to the RPE microsomal mixture to achieve a final concentration of 5 mM.
Two μl of a synthesized primary alcohol or amine dissolved in DMF (final concentration 10 μM) and 2 μl of 1,2-diheptanoyl-sn-glicerol-3-phosphocholine (water, final concentration 1 mM) were added to 200 μl of 10 mM Bis-Tris propane/HCl buffer, pH 7.4, containing 150 μg of RPE microsomes and 1% (v/w) BSA. The resulting mixture was incubated at 37° C. for 1 h. The reaction was quenched by adding 300 μl of methanol. Most reaction products were extracted with 300 μl of hexanes, except for products from the QEA-C-006 and QEA-G groups which were extracted by adding 300 μl of ethyl acetate and 300 μl of water.
Reaction products were separated and quantified by normal phase HPLC (Agilent Sil 5 μm, 4.6 mm×250 mm) in stepwise gradient of ethyl acetate in hexanes (0-15 min, 10%; 20-30 min, 30%) at a flow rate of 1.4 ml·min^−1.
The properties of retinoid derivatives were examined by two standard enzymatic tests, the […] and retinoid isomerization assays. To identify substrates of LRAT, aldehydes were reduced by sodium borohydrate to their corresponding primary alcohols that then were directly used in the esterification assay (FIG. 2B).
The alcohols were incubated with RPF microsomes that served as a source of LRAT enzymatic activity. Products of the enzymatic reaction as well as the remaining substrates were extracted with organic solvents and analyzed by HPLC. The ratio between a substrate and its esterified form was used to measure enzymatic activity efficiency, based on equivalent UV absorption of the substrate and product at their specific UV maxim wavelengths. Compounds classified as ‘good’ LRAT substrates converted at least 50% of their available alcohol substrates into corresponding esters under these experimental conditions, whereas marginal LRAT substrates were converted at less than 5%. Alcohols with a 5-50% conversion ratio were classified as weak substrates. Among 35 tested compounds, 23 were categorized as good and 9 as weak substrates; 3 compounds were not esterified by LRAT (Table 1 and FIG. 2C). […] Moreover, breaking double bond conjugation along the polyene chain or deletion of a C9 and/or a C13 methyl group also was allowed.
Consider `COc1ccc(C(=C\C=C\C(C)=C\CN)/C=C/c2ccc([N+](=O)[O-])cc2)cc1` [QEA-C-005-NH2], for which the “LRAT Substrate” value amounted to 100%.
Regarding `CC1=C(/C=C/C(C)=C/C=C/C(C)=C/C=C/CN)C(C)(C)CC(O)C1` (stereo not drawn) [PEA-A-003-NH2], the “LRAT Substrate” value worked out at 90%.
In the case of `CC(/C=C/C1=CCCCC1)=C\C=C\C(C)=C\CN` [QEA-A-006-NH2], the “LRAT Substrate” value was found to be 100%.
Regarding `CC(/C=C/C=C1/C=C(C2=COCCC2)CCC1)=C\CN` [QEA-D-002-NH2], the “LRAT Substrate” value is on record as 100%.
Same read-out and setting: for `CC1=C(/C=C/C(C)=C/C=C/CN)C(C)(C)CCC1` [TEA-A-001-NH2] the value was 100%; for `CC1=C(/C=C/C(C)=C/C=C/C(C)=C/C=C/CN)C(C)(C)CCC1O` (stereo not drawn) [PEA-A-002-NH2], 90%.
Take `CC1=C(/C=C/C(=C/C=C/CN)C(C)(C)C)CCCC1` [TEA-B-003-NH2]: the “LRAT Substrate” value is reported as 20%.
On to `COc1ccc(C(=C\C=C\C(C)=C\CN)/C=C/c2ccc(O)cc2)cc1` [QEA-C-006-NH2], for which the “LRAT Substrate” value is listed as 50%.
As to `CC(/C=C/C=C(/C=C/c1ccc(Cl)cc1)c1ccccc1)=C\CN` [QEA-C-004-NH2], the “LRAT Substrate” value is 100%.
`CC1=C(/C=C/C(C)=C/C=C/CN)C(C)(C)CC(O)C1` (stereo not drawn) [TEA-A-003-NH2]: the “LRAT Substrate” value amounted to 90%.
Take `CC1=C(/C=C/C(C)=C/C=C/CN)C(C)(C)CCC1O` (stereo not drawn) [TEA-A-004-NH2]: the “LRAT Substrate” value came to 90%.
As for `CC1=C(/C=C/C(C)=C/C=C/C(C)=C/C=C/CN)C(C)(C)CCC1` [PEA-A-001-NH2], the “LRAT Substrate” value is 100%.
Still for that read-out and setting: next, `CC(/C=C/C=C(/C=C/C1=CCCCC1)c1ccccc1)=C\CN` [QEA-E-001-NH2]: 100%.

Another series deals with T2, RPE65 (Bos taurus, UniProt Q28175).
T2 construct: from tissue; host or cells: bovine retinal pigment epithelium (RPE) microsomes
T2 sequence (Q28175 whole entry): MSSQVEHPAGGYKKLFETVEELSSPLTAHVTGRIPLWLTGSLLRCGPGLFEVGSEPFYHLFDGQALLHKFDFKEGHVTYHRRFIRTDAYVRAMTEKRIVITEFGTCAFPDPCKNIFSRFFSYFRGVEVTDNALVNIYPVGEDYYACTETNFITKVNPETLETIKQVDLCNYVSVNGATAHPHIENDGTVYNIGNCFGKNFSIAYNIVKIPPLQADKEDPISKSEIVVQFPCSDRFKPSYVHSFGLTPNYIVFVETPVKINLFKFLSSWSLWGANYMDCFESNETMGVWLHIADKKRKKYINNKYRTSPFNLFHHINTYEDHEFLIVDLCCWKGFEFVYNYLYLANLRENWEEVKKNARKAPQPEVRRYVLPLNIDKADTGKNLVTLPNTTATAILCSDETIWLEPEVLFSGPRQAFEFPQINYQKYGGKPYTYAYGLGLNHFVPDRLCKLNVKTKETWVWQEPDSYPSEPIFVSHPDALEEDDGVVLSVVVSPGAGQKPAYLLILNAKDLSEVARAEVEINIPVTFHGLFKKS
Kind of series: Retinoid isomerase activity assay (11-cis-retinol production in RPE microsomes). Format: biochemical, Bovine.
Conditions: not given
As to the method: as §1
[…] The resulting mixture was pre incubated at room temperature for 5 min. Then 1 μl of all-trans-retinol (in DMF, final concentration 20 μM) was added. The resulting mixture was incubated at 37° C. for 15 min to 2 h. The reaction was quenched by adding 300 μl of methanol, and products were extracted with 300 μl of hexanes. Production of 11-cis-retinol was quantified by normal phase HPLC with 10% (v/v) ethyl acetate in hexanes as the eluent at a flow rate of 1.4 ml·min^−1. Retinoids were detected by monitoring their absorbance at 325 nm and quantified based on a standard curve representing the relationship between the amount of 11-cis-retinol and the area under the corresponding chromatographic peak.
Primary amines of compounds derived from the aldehydes were subsequently tested for their ability to inhibit the RPE65-dependent retinoid isomerization reaction in dose- and time dependent reactions as exemplified by QEB-B-001 (FIG. 3B). Amines were incubated with RPE microsomes in the presence of all-trans-retinol and the 11-cis-retinoid binding protein, CRALBP.
Progress of the enzymatic reaction was monitored by HPLC separation of retinoids and quantification of 11-cis-retinol with a decrease of 11-cis-retinol production reflecting inhibition of RPE65 by a tested amine. […] This moderate inhibition could be enhanced by shortening the polyene chain length (TEA amines) or diminished by introducing an extra positive charge into the tested compounds (QEA-G amines).
Turning to `COc1ccc(C(=C\C=C\C(C)=C\CN)/C=C/c2ccc(O)cc2)cc1` [QEA-C-006-NH2], the “inhibition of RPE65” value was “did not inhibit”.

Still in this series, the particulars now being: primary amine; decline in 11-cis-retinol production in RPE microsomes; read-out: Inhibition of RPE65.
For `COc1ccc(C(=C\C=C\C(C)=C\CN)/C=C/c2ccc([N+](=O)[O-])cc2)cc1` [QEA-C-005-NH2], the IC50 was > 200 µM.
For the compound `CC1=C(/C=C/C(C)=C/C=C/C(C)=C/C=C/CN)C(C)(C)CC(O)C1` (stereo not drawn) [PEA-A-003-NH2], the IC50 was < 10 µM.
Still for that read-out and setting: next, `CC(/C=C/C1=CCCCC1)=C\C=C\C(C)=C\CN` [QEA-A-006-NH2]: 10 to 100 µM.
As to `CC(/C=C/C=C1/C=C(C2=COCCC2)CCC1)=C\CN` [QEA-D-002-NH2], the IC50 was > 200 µM.
`CC1=C(/C=C/C(C)=C/C=C/CN)C(C)(C)CCC1` [TEA-A-001-NH2]: the IC50 was < 10 µM.
Turning to `CC1=C(/C=C/C(C)=C/C=C/C(C)=C/C=C/CN)C(C)(C)CCC1O` (stereo not drawn) [PEA-A-002-NH2], the IC50 was < 10 µM.
For the compound `CC1=C(/C=C/C(=C/C=C/CN)C(C)(C)C)CCCC1` [TEA-B-003-NH2], the IC50 was > 200 µM.
Still for that read-out and setting: next, `COc1ccc(C(=C\C=C\C(C)=C\CN)/C=C/c2ccc(O)cc2)cc1` [QEA-C-006-NH2]: > 200 µM.
Turning to `CC(/C=C/C=C(/C=C/c1ccc(Cl)cc1)c1ccccc1)=C\CN` [QEA-C-004-NH2], the IC50 was > 200 µM.
For the compound `CC1=C(/C=C/C(C)=C/C=C/CN)C(C)(C)CC(O)C1` (stereo not drawn) [TEA-A-003-NH2], the IC50 was < 10 µM.
On to `CC1=C(/C=C/C(C)=C/C=C/CN)C(C)(C)CCC1O` (stereo not drawn) [TEA-A-004-NH2], for which the IC50 is < 10 µM.
Consider `CC1=C(/C=C/C(C)=C/C=C/C(C)=C/C=C/CN)C(C)(C)CCC1` [PEA-A-001-NH2], for which the IC50 is < 10 µM.
Consider `CC(/C=C/C=C(/C=C/C1=CCCCC1)c1ccccc1)=C\CN` [QEA-E-001-NH2], for which the IC50 is > 200 µM.

System in the next series: not listed separately
Briefly: Analysis of retinoid composition in mouse tissues: amide forms in liver by HPLC. The note with it: 4-week-old Abca4−/−Rdh8−/− mice, oral gavage, dark 24 h; liver extracts by HPLC. It counts as in vivo, mice. As to the method:
(§2) Abca4^−/−Rdh8^−/− double knockout mice were generated as previously described. Mice were housed in the animal facility at the School of Medicine, Case Western Reserve University, where they were maintained under either complete darkness or in a 12-h light (˜300 lux) and 12-h dark cycle. All tested primary amines were suspended in 100 μl of soybean oil with less than 10% (v/v) DMSO and were administered by oral gavage with a 22-gauge feeding needle. Experimental manipulations in the dark were done under dim red light transmitted through a Kodak No. 1 safelight filter (transmittance >560 nm). All animal procedures and experiments were approved by the Case Western Reserve University Animal Care Committees and conformed to recommendations of the American Veterinary Medical Association Panel on Euthanasia and the Association of Research for Vision and Ophthalmology.
Two mg of primary amines were administered by oral gavage to 4-week-old Abca4^−/−Rdh8^−/− mice, which then were kept in the dark for 24 h. Then mice were euthanized, and their livers were homogenized in 1 ml of 10 mM sodium phosphate buffer, pH 7.4, containing 50% methanol (v/v). The resulting mixture was extracted with 4 ml of hexanes. Extracts were dried in vacuo, and reconstituted in 300 μl of hexanes. 100 μl of this solution was analyzed by HPLC as described above for the LRAT activity assay.
(§3) For practical reasons, only eight of these leading compounds (QEA-B-001-NH2, B-002-NH2, C-001-NH2, C-003-NH2, C006-NH2, E-002-NH2, TEA-B-002-NH2, and C00-2-NH2) along with retinylamine as a control were selected for further testing in Abca4^−/−Rdh8^−/− mice, an animal model for light-induced retinal degeneration (Table 2). Additionally, two novel amines with moderate inhibition of RPE65 (QEA-A-006-NH2 and QEA-B-003-NI 12) and one with strong inhibition (QEA-A-005-NH2) were added to the first test group for comparison. Mice were gavaged with 1 mg of a test compound and then kept in the dark for 24 h prior to being exposed to bright light (˜10,000 lux) for 1 h. Retinal damage was assessed with OCT that measured the thickness of the outer nuclear layer and by quantification of tissue 11-cis retinal levels. An example is shown for imaging results in FIG. 4A and for 11-cis-retinal quantification in FIG. 4B. Additionally, extracts of livers obtained from treated mice were analyzed by HPLC to estimate the amounts of corresponding amides (FIG. 4C).
For the compound `CC(/C=C/C1=CCCCC1)=C\C=C\C(C)=C\CN` [QEA-A-006-NH2], the “Protection by amide in liver” value was “None”.
In the case of `COc1ccc(C(=C\C=C\C(C)=C\CN)/C=C/c2ccc(O)cc2)cc1` [QEA-C-006-NH2], the “Protection by amide in liver” value is listed as “None”.

Still in this series, the particulars now being: oral gavage, liver HPLC.
As to `CC(/C=C/C1=CCCCC1)=C\C=C\C(C)=C\CN` [QEA-A-006-NH2], the “amidation in vivo (accumulation of amide forms in mouse liver)” value is reported as “not efficiently amidated”.
Consider `COc1ccc(C(=C\C=C\C(C)=C\CN)/C=C/c2ccc(O)cc2)cc1` [QEA-C-006-NH2], for which the “amidation in vivo (accumulation of amide forms in mouse liver)” value is “not efficiently amidated”.

In a further series the test system is Abca4^−/−Rdh8^−/− mice. Kind of series: Toxicity in treated Abca4−/−Rdh8−/− mice (Table 2). It counts as in vivo. The note with it: 4-week-old Abca4−/−Rdh8−/− mice, oral gavage. The procedure:
as §2, §3
`CC(/C=C/C1=CCCCC1)=C\C=C\C(C)=C\CN` [QEA-A-006-NH2]: the Toxicity entry was “None”.
Consider `COc1ccc(C(=C\C=C\C(C)=C\CN)/C=C/c2ccc(O)cc2)cc1` [QEA-C-006-NH2], for which the Toxicity result was “None”.

Values taken from US10363231B2, “Compounds and methods of treating ocular disorders” (CASE WESTERN RESERVE UNIVERSITY, priority 2014, dated 2019).
